Experimental data published in patent US20160286810A1, “ACTIVE COMPOUND COMBINATIONS” (BAYER CROPSCIENCE AG, priority 2012, published 2016).

How the values were obtained:
Assay type in all cases: in vivo
Leptosphaeria nodorum = Leptosphaeria nodorum test (wheat)/preventive; conditions: preventive, 8 days after inoculation
Method: Solvent: 49 parts by weight of N,N-dimethylacetamide Emulsifier: 1 part by weight of alkylaryl polyglycol ether To produce a suitable preparation of active compound, 1 part by weight of active compound or active compound combination is mixed with the stated amounts of solvent and emulsifier, and the concentrate is diluted with water to the desired concentration. To test for preventive activity, young plants are sprayed with the preparation of active compound or active compound combination at the stated rate of application. After the spray coating has been dried, the plants are sprayed with a spore suspension of Leptosphaeria nodorum. The plants remain for 48 hours in an incubation cabinet at approximately 20° C. and a relative atmospheric humidity of approximately 100%. The plants are placed in the greenhouse at a temperature of approximately 22° C. and a relative atmospheric humidity of approximately 80%. The test is evaluated 8 days after the inoculation. 0% means an efficacy which corresponds to that of the untreated control, while an efficacy of 100% means that no disease is observed.

Botrytis cinerea = experiment: Botrytis test (beans)/preventive; conditions: preventive, 2 days after inoculation
Method: (§1) Solvent: 24.5 parts by weight of acetone • 24.5 parts by weight of dimethylacetamide Emulsifier: 1 part by weight of alkylaryl polyglycol ether
(§2) To produce a suitable preparation of active compound, 1 part by weight of active compound is mixed with the stated amounts of solvent and emulsifier, and the concentrate is diluted with water to the desired concentration.
To test for preventive activity, young plants are sprayed with the preparation of active compound. After the spray coating has dried on, 2 small pieces of agar covered with growth of Botrytis cinerea are placed on each leaf. The inoculated plants are placed in a darkened chamber at 20° C. and a relative atmospheric humidity of 100%.
2 days after the inoculation, the size of the lesions on the leaves is evaluated. 0% means an efficacy which corresponds to that of the untreated control, while an efficacy of 100% means that no disease is observed.

Venturia inaequalis = experiment: Venturia test (apples)/preventive; conditions: preventive, 10 days after inoculation
Method: as §1, §2
(§3) To test for preventive activity, young plants are sprayed with the preparation of active compound at the stated rate of application. After the spray coating has dried on, the plants are inoculated with an aqueous conidia suspension of the causal agent of apple scab (Venturia inaequalis) and then remain for 1 day in an incubation cabinet at approximately 20° C. and a relative atmospheric humidity of 100%.
The plants are then placed in a greenhouse at approximately 21° C. and a relative atmospheric humidity of approximately 90%.
The test is evaluated 10 days after the inoculation. 0% means an efficacy which corresponds to that of the untreated control, while an efficacy of 100% means that no disease is observed.

Alternaria solani = experiment: Alternaria test (tomatoes)/preventive; conditions: preventive, 3 days after inoculation
Method: as §1, §2
as §3, with “spore” for “conidia”, “Alternaria solani. The plants are” for “the causal agent of apple scab (Venturia inaequalis) and”, “placed” for “remain for 1 day”
The test is evaluated 3 days after the inoculation. 0% means an efficacy which corresponds to that of the untreated control while an efficacy of 100% means that no disease is observed.

Q: For `CC1(C)N=C(c2cnc3ccccc3c2)c2cccc(F)c2C1(F)F` [Ex 12, 3-(4,4,5-trifluoro-3,3-dimethyl-3,4-dihydroisoquinolin-1-yl)quinoline], which “Efficacy in % found” value (Leptosphaeria nodorum; 250 ppm a.i.) is on record?
A: 75%

Q: What about the “Efficacy in % found” value (Botrytis cinerea; 0.5 ppm a.i.) of the same compound?
A: 35%

Q: And the “Efficacy in % found” value (Venturia inaequalis; 0.25 ppm a.i.)?
A: 46%

Q: And the “Efficacy in % found” value (Alternaria solani; 50 ppm a.i.)?
A: 13%

Q: Which results are given for `CNC(=O)C(OC)c1ccccc1COc1cc(C)ccc1C` (stereo not drawn) [Ex 14, N-methyl-alpha-methoxy-2-[(2,5-dimethylphenoxy)methyl]phenylacetamide]?
A: Efficacy in % found (Leptosphaeria nodorum; 250 ppm a.i.): 25%; Efficacy in % found (Botrytis cinerea; 1.25 ppm a.i.): 0%; Efficacy in % found (Venturia inaequalis; 1.25 ppm a.i.): 31%; Efficacy in % found (Alternaria solani; 5 ppm a.i.): 52%

Q: For `OC(c1cccnc1)c1c(-c2ccc(Cl)cc2F)noc1-c1ccc(F)cc1F` (centres unmarked) [Ex 15, [3-(4-chloro-2-fluorophenyl)-5-(2,4-difluorophenyl)-1,2-oxazol-4-yl](pyridin-3-yl)methanol], which “Efficacy in % found” value (Leptosphaeria nodorum; 250 ppm a.i.) is on record?
A: 88%

Q: And the “Efficacy in % found” value (Botrytis cinerea; 2.5 ppm a.i.)?
A: 0%

Q: And the “Efficacy in % found” value (Venturia inaequalis; 5 ppm a.i.)?
A: 60%

Q: And the “Efficacy in % found” value (Alternaria solani; 5 ppm a.i.)?
A: 24%

Q: How did the “Efficacy in % found” value (Leptosphaeria nodorum; 1000 ppm a.i.) turn out when `Cn1c(=O)c2sc3c(=O)n(C)c(=O)c3sc2c1=O` [(I-1), 2,6-dimethyl-1H,5H-[1,4]dithiino[2,3-c:5,6-c′]dipyrrole-1,3,5,7(2H,6H)-tetrone] was run?
A: 0%

Q: And the “Efficacy in % found” value (Botrytis cinerea; 12.5 ppm a.i.)?
A: 15%

Q: What about the “Efficacy in % found” value (Botrytis cinerea; 25 ppm a.i.) of the same compound?
A: 33%

Q: And the “Efficacy in % found” value (Venturia inaequalis; 12.5 ppm a.i.)?
A: 0%

Q: What about the “Efficacy in % found” value (Venturia inaequalis; 25 ppm a.i.) of the same compound?
A: 15%

Q: And the “Efficacy in % found” value (Venturia inaequalis; 50 ppm a.i.)?
A: 62%

Q: And the “Efficacy in % found” value (Alternaria solani; 50 ppm a.i.)?
A: 29%

Q: What about the “Efficacy in % found” value (Alternaria solani; 100 ppm a.i.) of the same compound?
A: 26%

Q: How did the “Efficacy in % found” value (Leptosphaeria nodorum; 250 ppm a.i.) turn out when `CC1(C)N=C(c2cnc3ccccc3c2)c2ccccc2C1(F)F` [Ex 10, 3-(4,4-difluoro-3,3-dimethyl-3,4-dihydroisoquinolin-1-yl)quinoline] was run?
A: 88%

Q: What about the “Efficacy in % found” value (Alternaria solani; 100 ppm a.i.) of the same compound?
A: 37%

Q: Which “Efficacy in % found” value (Leptosphaeria nodorum; 250 ppm a.i.) does the source give for `Cc1cc(OC(C)C)ccc1C(=O)C(C)(C)NC(=O)c1sccc1C` [Ex 13, N-[1-(4-isopropoxy-2-methylphenyl)-2-methyl-1-oxopropan-2-yl]-3-methylthiophene-2-carboxamide] here?
A: 25%

Q: What about the “Efficacy in % found” value (Venturia inaequalis; 10 ppm a.i.) of the same compound?
A: 64%

Q: What about the “Efficacy in % found” value (Alternaria solani; 20 ppm a.i.) of the same compound?
A: 52%

Q: For `CC1(C)N=C(c2cnc3ccccc3c2)c2cccc(F)c2C1(C)C` [Ex 11, 3-(5-fluoro-3,3,4,4-tetramethyl-3,4-dihydroisoquinolin-1-yl)quinoline], which “Efficacy in % found” value (Leptosphaeria nodorum; 250 ppm a.i.) is on record?
A: 75%

Q: What about the “Efficacy in % found” value (Botrytis cinerea; 0.5 ppm a.i.) of the same compound?
A: 30%

Q: What about the “Efficacy in % found” value (Venturia inaequalis; 1 ppm a.i.) of the same compound?
A: 0%

Q: And the “Efficacy in % found” value (Alternaria solani; 50 ppm a.i.)?
A: 38%
